From patent publication US12590062B2, “PD-1/PD-L1 inhibitors” (Gilead Sciences, Inc., priority 2017, dated 2026) come the findings set out here.

Assay [1] concerns the target T1, interaction between the recombinant extracellular domain (ECD) of PD-1 and native cell-bound PD-L1 (Homo sapiens, UniProt Q9NZQ7).
T1 construct: expressed in transfected cells
The assay can be described thus: CHO/PD-L1 cell capture assay. In kind it is cell-based. The settings on record: CHO cells overexpressing PD-L1, pre-incubated 1 hr with compound, captured on biotinylated Fc-PD-1 coated plates, 75 min at room temperature. Here is the method:
EC50-CHO/PD-L1-Capture Assay:
Compounds were tested in a cell capture assay to determine if they can specifically block the interaction between the recombinant extracellular domain (ECD) of PD-1 and native cell-bound PD-L1. Binding affinity of stable CHO cells overexpressing PD-L1 with its cognate recombinant ligand coated on plates was measured by counting the number of ‘captured’ cells. High-capacity streptavidin- coated plates were incubated with biotylated-Fc-PD-1 for 2 hours in PBS. Unbound ligand was washed out. CHO-PD-L1 cells (resuspended in PBS pH 7.4, 0.5 mM EDTA, and 2% bovine serum albumin) were pre-incubated for 1 hr with compound, dispensed into each PD-1 ECD coated well and then incubated for 75 min at room temperature. To stop the capture assay, a fixative/staining solution (final concentrations are 1.3% glutaraldehyde and 1.67 μM Draq5) was gently added to the cells and incubated for 2 hrs at room temperature. Unbound cells were then washed out and ‘captured’ cells were enumerated using a high-content microscopy system. EC50 values were calculated from the fit of the dose-response curves to a four-parameter equation. Representative data are shown below in Table 2.

Assay [2] has as its target T2, PD-1/PD-L1 interaction (Homo sapiens, UniProt Q9NZQ7).
T2 construct: expressed in transfected cells; host or cells: CHO cells (aAPC-PD-L1) co-cultured with Jurkat cells overexpressing PD-1 and an NFAT-luciferase reporter
The assay can be described thus: PD-1/PD-L1 NFAT reporter co-culture assay. The assay is classed as cell-based. The settings on record: Jurkat PD-1 NFAT-luciferase cells co-cultured with aAPC-PD-L1 CHO cells, 6 hrs at 37° C.; read-out: EC50 NFAT Luciferase. The procedure, abridged:
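Jurkat cells overexpressing PD-1 with NFAT-driven luciferase were mixed with compound in RPMI 1640/2% FBS and seeded onto overnight-plated CHO aAPC-PD-L1 cells expressing surface anti-CD3 and PD-L1. Co-culture ran 6 h at 37 °C; luminescence read with ONE-Glo; EC50 from four-parameter fit.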

T1 sequence (Q9NZQ7 19-290): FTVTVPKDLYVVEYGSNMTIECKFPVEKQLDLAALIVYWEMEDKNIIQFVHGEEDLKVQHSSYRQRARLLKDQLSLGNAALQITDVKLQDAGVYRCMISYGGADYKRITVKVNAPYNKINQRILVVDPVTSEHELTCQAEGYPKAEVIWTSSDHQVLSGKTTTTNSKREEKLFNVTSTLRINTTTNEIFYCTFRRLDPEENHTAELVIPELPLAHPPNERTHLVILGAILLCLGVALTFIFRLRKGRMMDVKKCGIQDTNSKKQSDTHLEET
T2 sequence (Q9NZQ7 19-290): as above

For orientation: EC50 means the midpoint of the concentration-response curve. Consider `COc1nc(OCc2cccc(-c3cccc(COc4nc(OC)c(CN(CCCC(N)=O)CC(=O)O)cc4Br)c3C)c2C)c(Br)cc1CNCCCC(N)=O` [Example 118, N-(4-amino-4-oxobutyl)-N-((6-((3′-(((5-(((4-amino-4-oxobutyl)amino)methyl)-3-bromo-6-methoxypyridin-2-yl)oxy)methyl)-2,2′-dimethyl-[1,1′-biphenyl]-3-yl)methoxy)-5-bromo-2-methoxypyridin-3-yl)methyl)glycine], for which the EC50 in assay [1] turned out to be 169 nM; in assay [2], 823 nM.
For `Cc1c(COc2nc(OCc3cc(C#N)cc(C#N)c3)c(CNC[C@@H](O)CC(=O)O)cc2Cl)cccc1-c1cccc(COc2nc(OCc3cc(C#N)cc(C#N)c3)c(CNC[C@@H](O)CC(=O)O)cc2Cl)c1C` [Example 122, (3S,3′S)-4,4′-((((((2,2′-dimethyl-[1,1′-biphenyl]-3,3′-diyl)bis(methylene))bis(oxy))bis(5-chloro-2-((3,5-dicyanobenzyl)oxy)pyridine-6,3-diyl))bis(methylene))bis(azanediyl))bis(3-hydroxybutanoic acid)] the same measures were 192 nM and 79 nM.
For `Cc1c(COc2nc(OCC3CCO3)c(CNC[C@@H](O)CC(=O)O)cc2Br)cccc1-c1cccc(COc2nc(OCC3CCO3)c(CNC[C@@H](O)CC(=O)O)cc2Br)c1C` (stereo partly drawn) [Example 131, (3S,3′S)-4,4′-((((((2,2′-dimethyl-[1,1′-biphenyl]-3,3′-diyl)bis(methylene))bis(oxy))bis(5-bromo-2-(oxetan-2-ylmethoxy)pyridine-6,3-diyl))bis(methylene))bis(azanediyl))bis(3-hydroxybutanoic acid)] the same measures were 231 nM and 964 nM.
The corresponding values for `CNC(=O)CCOc1nc(OCc2cccc(-c3cccc(COc4nc(OCCC(=O)NC)c(CNC[C@@H](O)CC(=O)O)cc4Cl)c3C)c2C)c(Cl)cc1CNC[C@@H](O)CC(=O)O` [Example 134, (3S,3′S)-4,4′-((((((2,2′-dimethyl-[1,1′-biphenyl]-3,3′-diyl)bis(methylene))bis(oxy))bis(5-chloro-2-(3-(methylamino)-3-oxopropoxy)pyridine-6,3-diyl))bis(methylene))bis(azanediyl))bis(3-hydroxybutanoic acid)] are 112 nM and 660 nM.
Take `Cc1c(COc2nc(OCCC(N)=O)c(CNC[C@@H](O)CC(=O)O)cc2Br)cccc1-c1cccc(COc2nc(OCCC(N)=O)c(CNC[C@@H](O)CC(=O)O)cc2Br)c1C` [Example 145, (3S,3′S)-4,4′-((((((2,2′-dimethyl-[1,1′-biphenyl]-3,3′-diyl)bis(methylene))bis(oxy))bis(2-(3-amino-3-oxopropoxy)-5-bromopyridine-6,3-diyl))bis(methylene))bis(azanediyl))bis(3-hydroxybutanoic acid)]: the figures for the EC50 in assay [1] and in assay [2] were 63.6 nM and 362 nM, respectively.
Consider `Cc1c(COc2nc(OCc3cc(C#N)ccn3)c(CNC[C@@H](O)CC(=O)O)cc2Br)cccc1-c1cccc(COc2nc(OCc3cc(C#N)ccn3)c(CNC[C@@H](O)CC(=O)O)cc2Br)c1C` [Example 148, (3S,3′S)-4,4′-((((((2,2′-dimethyl-[1,1′-biphenyl]-3,3′-diyl)bis(methylene))bis(oxy))bis(5-bromo-2-((4-cyanopyridin-2-yl)methoxy)pyridine-6,3-diyl))bis(methylene))bis(azanediyl))bis(3-hydroxybutanoic acid)], for which the EC50 in assay [1] was 132 nM; in assay [2], 124 nM.
For the compound `COCCCOc1nc(OCc2cccc(-c3cccc(COc4nc(OCCCOC)c(CNC[C@@H](O)CC(=O)O)cc4Br)c3C)c2C)c(Br)cc1CNC[C@@H](O)CC(=O)O` [Example 149, (3S,3′S)-4,4′-((((((2,2′-dimethyl-[1,1′-biphenyl]-3,3′-diyl)bis(methylene))bis(oxy))bis(5-bromo-2-(3-methoxypropoxy)pyridine-6,3-diyl))bis(methylene))bis(azanediyl))bis(3-hydroxybutanoic acid)], the EC50 in assay [1] amounted to 275 nM; in assay [2], 668 nM.
For `COc1nc(OCc2cccc(-c3cccc(COc4nc(OC)c(CNC[C@@H](F)C(=O)O)cc4Cl)c3C)c2C)c(Cl)cc1CNC[C@@H](F)C(=O)O` [Example 179, (2R,2′R)-3,3′-((((((2,2′-dimethyl-[1,1′-biphenyl]-3,3′-diyl)bis(methylene))bis(oxy))bis(5-chloro-2-methoxypyridine-6,3-diyl))bis(methylene))bis(azanediyl))bis(2-fluoropropanoic acid)], the figures for the EC50 in assay [1] and in assay [2] were 319 nM and 655 nM, respectively.
The corresponding values for `COc1nc(OCc2cccc(-c3cccc(COc4nc(OC)c(CN[C@H](C)[C@@H](O)CC(=O)O)cc4Cl)c3C)c2C)c(Cl)cc1CN[C@H](C)[C@@H](O)CC(=O)O` [Example 182, (3S,3′S,4R,4′R)-4,4′-((((((2,2′-dimethyl-[1,1′-biphenyl]-3,3′-diyl)bis(methylene))bis(oxy))bis(5-chloro-2-methoxypyridine-6,3-diyl))bis(methylene))bis(azanediyl))bis(3-hydroxypentanoic acid)] are 91.4 nM and 439 nM.
The corresponding values for `COc1nc(OCc2cccc(-c3cccc(COc4nc(OC)c(CN[C@@H]5CC[C@H](C(=O)O)C5)cc4Cl)c3C)c2C)c(Cl)cc1CN[C@@H]1CC[C@H](C(=O)O)C1` [Example 185, (1S,1′S,3R,3′R)-3,3′-((((((2,2′-dimethyl-[1,1′-biphenyl]-3,3′-diyl)bis(methylene))bis(oxy))bis(5-chloro-2-methoxypyridine-6,3-diyl))bis(methylene))bis(azanediyl))bis(cyclopentane-1-carboxylic acid)] are 277 nM and 195 nM.
As for `C[C@](CO)(NCc1cc(Br)c(OCc2cccc(-c3cccc(COc4nc(OCc5cncc(C#N)c5)c(CN[C@](C)(CO)C(=O)O)cc4Br)c3Cl)c2Cl)nc1OCc1cncc(C#N)c1)C(=O)O` [Example 198, (2R,2′R)-2,2′-((((((2,2′-Dichloro-[1,1′-biphenyl]-3,3′-diyl)bis(methylene))bis(oxy))bis(5-bromo-2-((5-cyanopyridin-3-yl)methoxy)pyridine-6,3-diyl))bis(methylene))bis(azanediyl))bis(3-hydroxy-2-methylpropanoic acid)], the EC50 was determined as 101 nM in assay [1] and 69 nM in assay [2].
The corresponding values for `COc1cc(OCc2cccc(-c3cccc(COc4cc(OCc5cncc(C#N)c5)c(CNC[C@H](O)C(=O)O)cc4Cl)c3C)c2C)c(Cl)cc1CNC[C@H](O)C(=O)O` [Example 216, (S)-3-((4-((3′-((4-((((S)-2-carboxy-2-hydroxyethyl)amino)methyl)-2-chloro-5-((5-cyanopyridin-3-yl)methoxy)phenoxy)methyl)-2,2′-dimethyl-[1,1′-biphenyl]-3-yl)methoxy)-5-chloro-2-methoxybenzyl)amino)-2-hydroxypropanoic acid] are 206 nM and 514 nM.
The corresponding values for `COc1cc(OCc2cccc(-c3cccc(COc4cc(OCc5cncc(C#N)c5)c(CNCC(=O)O)cc4Cl)c3C)c2C)c(Cl)cc1CNCC(=O)O` [Example 217, (4-((3′-((4-(((carboxymethyl)amino)methyl)-2-chloro-5-((5-cyanopyridin-3-yl)methoxy)phenoxy)methyl)-2,2′-dimethyl-[1,1′-biphenyl]-3-yl)methoxy)-5-chloro-2-methoxybenzyl)glycine] are 71.6 nM and 589 nM.
For `COc1nc(OCc2cccc(-c3cccc(COc4nc(OC)c(CNC5(C#N)CCC5)cc4Cl)c3C)c2C)c(Cl)cc1CNC1(C#N)CCC1` [Example 231, 1,1′-((((((2,2′-dimethyl-[1,1′-biphenyl]-3,3′-diyl)bis(methylene))bis(oxy))bis(5-chloro-2-methoxypyridine-6,3-diyl))bis(methylene))bis(azanediyl))bis(cyclobutane-1-carbonitrile)] the same measures were 277 nM and 962 nM.
Turning to `COc1nc(OCc2cccc(-c3cccc(COc4nc(OC)c(CN5CCC[C@@H]5C(=O)O)cc4Cl)c3C)c2C)c(Cl)cc1CN1CCC[C@@H]1C(=O)O` [Example 234, (2′R)-(((((2,2′-dimethyl-[1,1′-biphenyl]-3,3′-diyl)bis(methylene))bis(oxy))bis(5-chloro-2-methoxypyridine-6,3-diyl))bis(methylene))di-D-proline], the EC50 in assay [1] was found to be 132 nM; in assay [2], 444 nM.
The corresponding values for `Cc1c(COc2cc(OCc3cncc(C#N)c3)c(CNC[C@@H](O)CC(=O)O)cc2Cl)cccc1-c1cccc(-c2ccc(OCCNC[C@@H](O)CC(=O)O)c(Cl)c2)c1C` [Example 288, (S)-4-((4-((4″-(2-(((S)-3-carboxy-2-hydroxypropyl)amino)ethoxy)-3″-chloro-2,2′-dimethyl-[1,1′:3′,1″-terphenyl]-3-yl)methoxy)-5-chloro-2-((5-cyanopyridin-3-yl)methoxy)benzyl)amino)-3-hydroxybutanoic acid] are 10.3 nM and 57 nM.
